Data set [1] is described as follows: pH-solubility of nintedanib HBr Pattern 4 and Pattern X. Format: physicochemical. As to conditions: distilled water, over 48 hours, UV/vis 390 nm, unit assumed. As for the experimental part: The solubility of Pattern 4 and Pattern X at various pH values were determined by UV/vis spectrophotometry. Excess Pattern 4 and Pattern X HBr salts were added to distilled water, vortexed at high speed and the pH was adjusted to the target value by adding 1N HCl or 1N NaOH. The test solutions were mixed on a magnetic stirrer for over 48 hours, then filtered through a 0.22 μm nylon membrane syringe filter and analyzed by uv/vis spectrophotometry at 390 nm. […] The solubility of both polymorphic forms decreases with increasing pH. Both polymorphic forms have similar solubility profile.

Data set [2] is described as follows: Temperature-solubility of nintedanib HBr Pattern 4 and Pattern X. Format: physicochemical. As to conditions: distilled water, over 48 hours. The procedure: During this time period, the samples were periodically taken out of the storage, vortexed, and returned to storage condition. At the end of the incubation period, the test solutions were filtered through a 0.22 μm nylon membrane syringe filter and analyzed by uv/vis spectrophotometry (at 390 nm) for drug concentration. Table 29 summarizes the solubility of both salt forms as a function of temperature. The solubility of both polymorphic forms increases with increasing temperature. Both polymorphic forms have similar solubility profiles.

Usually solubility stands for the dissolved amount per volume that the medium holds. The low end stands for a poorly soluble substance, the high end for a readily soluble substance. Consider `Br.COC(=O)c1ccc2c(c1)NC(=O)/C2=C(\Nc1ccc(N(C)C(=O)CN2CCN(C)CC2)cc1)c1ccccc1` [Nintedanib HBr Pattern X, Nintedanib hydrobromide, XRPD Pattern X], for which the solubility in data set [1] (pH 3.1) turned out to be 1860 µg/mL; in data set [1] (pH 3.9), 1720 µg/mL; in data set [1] (pH 4.4), 1490 µg/mL; in data set [1] (pH 5.1) it was 1400 µg/mL. The “Nintedanib HBr Solubility” value in data set [2] (5° C.) stood at 650 µg/mL; in data set [2] (22° C.) it was 1490 µg/mL; in data set [2] (40° C.) it was 3410 µg/mL.

As for `Br.COC(=O)c1ccc2c(c1)NC(=O)/C2=C(\Nc1ccc(N(C)C(=O)CN2CCN(C)CC2)cc1)c1ccccc1` [Nintedanib HBr Pattern 4, Nintedanib hydrobromide, XRPD Pattern 4], the solubility worked out at 2010 µg/mL in data set [1] (pH 3.1), 1470 µg/mL in data set [1] (pH 3.9), 1380 µg/mL in data set [1] (pH 4.7) and 1070 µg/mL in data set [1] (pH 5.3). For the same compound, the “Nintedanib HBr Solubility” value in data set [2] (5° C.) amounted to 790 µg/mL; in data set [2] (22° C.), 1380 µg/mL; in data set [2] (40° C.), 3200 µg/mL.

The values above are taken from patent publication US12090225B2 (Avalyn Pharma Inc., priority 2018, dated 2024).
